Measured values reported in publication PMC3949622, “Macrocyclic Pyridyl Polyoxazoles: Structure-Activity Studies of the Aminoalkyl Side-Chain on G-Quadruplex Stabilization and Cytotoxic Activity” (Molecules, 2013).
Read-outs that look alike come from different tables or passages of the source. Marks after values point to notes of the source that are not given here. One block for each molecule: values may come before it.

How the values were obtained:
[1] = tested on: human telomeric sequence d[T2G3(T2AG3)3A] (hTel) quadruplex DNA; experiment: UV melting of hTel quadruplex DNA (G-quadruplex stabilization); type: binding; details: hTel 5 µM strand, drug 20 µM; for ΔTtran, hTel quadruplex DNA: change in Ttran induced by compound, UV melting at 295 nm, pH 7.5, K+ 150 mM, uncertainty ± 0.5 °C; for Ttran, hTel quadruplex DNA: first-derivative UV melting at 295 nm, 10 mM potassium phosphate pH 7.5, total K+ 150 mM, no drug: 64.6
Method: (§1) Each compound was evaluated for its ability to selectively bind and stabilize G-quadruplex DNA in the presence of K^+ ions (150 mM). Salmon testes (ST) DNA was employed as a model of duplex DNA and the human telomeric sequence d[T2G3(T2AG3)3A], denoted as hTel, was used as a model of quadruplex DNA. This sequence has been shown by Patel and co-workers, to exist as an intramolecular (3 + 1) G-quadruplex in which three strands are oriented in one direction and the fourth is oriented in the opposite direction in K^+ solution [35]. The first-derivative forms of the UV melting profiles for ST DNA and hTel DNA were recorded in the absence and presence of the various macrocycles. The ligand-induced changes, if any, in the transition temperature (Ttran) corresponding to the maxima (for quadruplex DNA) or minima (for duplex DNA) of these first-derivative melting profiles are listed in Table 1 for each macrocycle. With the exception of 8 which has a slight (<1 °C) destabilizing effect, none of the other macrocycles alters the thermal stability of ST duplex DNA to any significant extent and any observed changes in Ttran are within the experimental uncertainty. This observation is consistent with little or no duplex DNA binding by these macrocycles. Similar behavior has been observed for other macrocyclic pyridyl polyoxazoles. Temperature-Dependent Spectrophotometry. Temperature-dependent absorption experiments were conducted on an AVIV Model 14DS Spectrophotometer (Aviv Biomedical, Lakewood, NJ, USA) equipped with a thermoelectrically controlled cell holder. Quartz cells with a path length of 1.0 cm were used for all the absorbance studies. Temperature-dependent absorption profiles were acquired at either 260 nm (for ST duplex DNA) or 295 nm (for hTel quadruplex DNA) with a 5 s averaging time. The temperature was raised in 0.5 °C increments, and the samples were allowed to equilibrate for 1 min at each temperature setting. In the quadruplex melting studies, the hTel concentration was 5 µM in strand (120 μM in nucleotide). When present in these quadruplex studies, the drug concentrations were 20 µM. In the duplex melting studies the ST DNA concentrations were 15 µM base pair (30 μM in nucleotide) and, when present, the drug concentrations were 15 µM. The buffer for all the UV melting experiments contained 10 mM potassium phosphate (pH 7.5) and sufficient KCl (132 mM) to bring the total K^+ concentration to 150 mM. Prior to their use in the UV melting experiments, all nucleic acid solutions were preheated at 90 °C for 5 min and slowly cooled to room temperature over a period of 4 hr.

[2] = tested on: Salmon testes (ST) duplex DNA; experiment: UV melting of salmon testes duplex DNA; type: binding; details: for ΔTtran, salmon testes duplex DNA: change in Ttran induced by compound, UV melting at 260 nm, pH 7.5, K+ 150 mM, uncertainty ± 0.5 °C; for ΔTtran, salmon testes duplex DNA / Ttran, salmon testes duplex DNA: ST DNA 15 µM base pair, drug 15 µM; for Ttran, salmon testes duplex DNA: first-derivative UV melting at 260 nm, 10 mM potassium phosphate pH 7.5, total K+ 150 mM, no drug: 86.6
Method: as §1

RPMI 8402 cells [3] = experiment: MTT cytotoxicity assay, RPMI 8402; type: cell-based, human; details: continuous exposure for four days
Method: (§2) Each N,N-dimethylamino-substituted macrocycle was also evaluated for cytotoxic activity against a human lymphoblastoma RPMI 8402 and a human epidermoid carcinoma KB3-1 cell line (Table 2). The results from these assays are informative about the relationship of structure to cytotoxic activity among the PyPX macrocyclic G-quadruplex stabilizers. […] An explanation for this observation is not clear at this time. The three-carbon analogs 12 and 22 have nearly equivalent activity at both positions, but these longer-chain analogs are generally lower in activity than the two-carbon analogs. Attachment of the dimethylamino group directly to the phenyl ring (8 and 19) leads to compounds having the greatest cytotoxic potency at their respective points of attachment. […] In general analogs that have an even number (0 or 2) of methylene spacer groups are more cytotoxic than those with an odd number. […] Moving the side-chain away from the phenyl ring and onto an oxazole ring also fails to improve cytotoxic activity.
(§3) Cytotoxicity was determined using the MTT-microtiter plate tetrazolinium assay (MTA). The human lymphoblast RPMI 8402 cell line was provided by Dr. Toshiwo Andoh (Aichi Cancer Center Research Institute, Nagoya, Japan). The KB3-1 cell line was obtained from K.V. Chin (The Cancer Institute of New Jersey, New Brunswick, NJ, USA). The cytotoxicity assay was performed using 96-well microtiter plates. Cells were grown in suspension at 37 °C in 5% CO2 and maintained by regular passage in RPMI medium supplemented with 10% heat inactivated fetal bovine serum, L-glutamine (2 mM), penicillin (100 U/mL), and Streptomycin (0.1 mg/mL). For determination of IC50 values, cells were exposed continuously for four days to varying concentrations of drug, and MTT assays were performed at the end of the fourth day. […] All assays were performed at least twice in six replicate wells.

KB3-1 cells [4] = experiment: MTT cytotoxicity assay, KB3-1; type: cell-based, human; details: continuous exposure for four days, means of at least two determinations ± standard deviation, read-out: IC50, KB3-1 wt.
Method: as §2, §3

[5] = Water-solubility (qualitative); type: physicochemical; details: qualitative statement, method not given
[6] = tested on: Salmon testes (ST) duplex DNA; details: change in transition temperature of ST duplex DNA; ref [21]; cited from earlier work
Text: Table 1 Effect of various pyridyl polyoxazoles on the thermal stabilities of duplex and quadruplex DNA. | column: Salmon Testes Duplex DNA / ΔTtran (°C) ^a

several tumor cell lines = details: ref [18],[20]; read-out: average IC50 towards several tumor cell lines; cited from earlier work
Text: (§4) The development of G-quadruplex stabilizers as a potential new class of anticancer agents hinges on the ability to design compounds that stabilize only G-quadruplexes and not other nucleic acid structures such as duplex or triplex DNA [15]. While a diverse array of compounds have been reported to stabilize G-quadruplex DNA [1], most also have some ability to stabilize duplex DNA. The natural product telomestatin for example, is reported to stabilize G-quadruplex DNA with 70:1 selectivity over duplex DNA [16, 17]. In contrast, the synthetic macrocyclic hexaoxazole HXDV (Figure 1) demonst ...

RPMI 8402 cells [7] = details: range given for analogs 1 and 2 together; ref [21]; read-out: IC50 against RPMI 8402 cells; cited from earlier work
Text: as §4, with “Table 2 Relative cytotoxic activities. IC50 values (μM) ^a. | column: RPMI 8402 || The development” for “The development”

KB3-1 cells [8] = details: range given for analogs 1 and 2 together; ref [21]; read-out: IC50 against KB3-1 cells; cited from earlier work
Text: as §4, with “Table 2 Relative cytotoxic activities. IC50 values (μM) ^a. | column: KB3-1 wt. || The development” for “The development”

[9] = means of at least two determinations ± standard deviation

SMILES: CN(C)Cc1cc2cc(c1)CNC(=O)c1coc(n1)-c1coc(n1)-c1cccc(n1)-c1nc(co1)-c1nc(co1)C(=O)NC2 [Compound 20, Pyridyl tetraoxazole macrocycle with a 5-(N,N-dimethylaminomethyl) group on the phenyl ring]
ΔTtran, hTel quadruplex DNA [1]: 0.1 °C
Ttran, hTel quadruplex DNA [1]: 64.7 °C
ΔTtran, salmon testes duplex DNA [2]: −0.4 °C
Ttran, salmon testes duplex DNA [2]: 86.2 °C
IC50 (RPMI 8402 cells [3]; [9]): 7000 ± 4200 nM
IC50 (KB3-1 cells [4]): 5500 ± 700 nM

SMILES: CN(C)CCc1ccc2cc1CNC(=O)c1coc(n1)-c1coc(n1)-c1cccc(n1)-c1nc(co1)-c1nc(co1)C(=O)NC2 [Compound 11, Pyridyl tetraoxazole macrocycle with a 4-[2-(N,N-dimethylamino)ethyl] group on the phenyl ring]
ΔTtran, hTel quadruplex DNA [1]: 24.6 °C
Ttran, hTel quadruplex DNA [1]: 89.2 °C
ΔTtran, salmon testes duplex DNA [2]: −0.4 °C
Ttran, salmon testes duplex DNA [2]: 86.2 °C
IC50 (RPMI 8402 cells [3]; [9]): 500 ± 400 nM
IC50 (KB3-1 cells [4]): 70 ± 70 nM

SMILES: CN(C)CCCc1cc2cc(c1)CNC(=O)c1coc(n1)-c1coc(n1)-c1cccc(n1)-c1nc(co1)-c1nc(co1)C(=O)NC2 [Compound 22, Pyridyl tetraoxazole macrocycle with a 5-[3-(N,N-dimethylamino)propyl] group on the phenyl ring]
ΔTtran, hTel quadruplex DNA [1]: 28.6 °C
Ttran, hTel quadruplex DNA [1]: 93.2 °C
ΔTtran, salmon testes duplex DNA [2]: −0.4 °C
Ttran, salmon testes duplex DNA [2]: 86.2 °C
IC50 (RPMI 8402 cells [3]; [9]): 500 ± 100 nM
IC50 (KB3-1 cells [4]): 220 ± 130 nM

water-solubility [5]: significantly less water-soluble
SMILES: CN(C)c1cc2cc(c1)CNC(=O)c1coc(n1)-c1coc(n1)-c1cccc(n1)-c1nc(co1)-c1nc(co1)C(=O)NC2 [Compound 19, Pyridyl tetraoxazole macrocycle with a 5-N,N-dimethylamino group on the phenyl ring]
ΔTtran, hTel quadruplex DNA [1]: 15.5 °C
Ttran, hTel quadruplex DNA [1]: 80.1 °C
ΔTtran, salmon testes duplex DNA [2]: −0.5 °C
Ttran, salmon testes duplex DNA [2]: 86.1 °C
IC50 (RPMI 8402 cells [3]; [9]): 60 ± 10 nM
IC50 (KB3-1 cells [4]): 30 nM

water-solubility [5]: good water-solubility
SMILES: CN(C)CCc1oc2nc1C(=O)NCc1cccc(c1)CNC(=O)c1coc(n1)-c1coc(n1)-c1cccc(n1)-c1nc-2co1 [Compound 36, Pyridyl tetraoxazole macrocycle with a single 2-(N,N-dimethylamino)ethyl side chain]
ΔTtran, hTel quadruplex DNA [1]: 4.6 °C
Ttran, hTel quadruplex DNA [1]: 69.2 °C
ΔTtran, salmon testes duplex DNA [2]: −0.4 °C
Ttran, salmon testes duplex DNA [2]: 86.2 °C
IC50 (RPMI 8402 cells [3]; [9]): 280 ± 40 nM
IC50 (KB3-1 cells [4]): 140 ± 20 nM

water-solubility [5]: significantly less water-soluble
SMILES: CN(C)c1ccc2cc1CNC(=O)c1coc(n1)-c1coc(n1)-c1cccc(n1)-c1nc(co1)-c1nc(co1)C(=O)NC2 [Compound 8, Pyridyl tetraoxazole macrocycle with a 4-(N,N-dimethylamino) group on the phenyl ring]
ΔTtran, hTel quadruplex DNA [1]: 20.5 °C
Ttran, hTel quadruplex DNA [1]: 85.1 °C
ΔTtran, salmon testes duplex DNA [2]: −0.9 °C
Ttran, salmon testes duplex DNA [2]: 85.7 °C
destabilizing effect on ST duplex DNA (thermal stability) ([2]; size of the decrease in Ttran): < 1 °C
IC50 (RPMI 8402 cells [3]; single determination): 120 nM
IC50 (KB3-1 cells [4]): 30 nM

SMILES: CN(C)CCCc1ccc2cc1CNC(=O)c1coc(n1)-c1coc(n1)-c1cccc(n1)-c1nc(co1)-c1nc(co1)C(=O)NC2 [Compound 12, Pyridyl tetraoxazole macrocycle with a 4-[3-(N,N-dimethylamino)propyl] group on the phenyl ring]
ΔTtran, hTel quadruplex DNA [1]: 7.1 °C
Ttran, hTel quadruplex DNA [1]: 71.7 °C
ΔTtran, salmon testes duplex DNA [2]: −0.4 °C
Ttran, salmon testes duplex DNA [2]: 86.2 °C
IC50 (RPMI 8402 cells [3]; [9]): 400 nM
IC50 (KB3-1 cells [4]): 250 ± 70 nM

SMILES: CC(C)[C@@H]1NC(=O)c2coc(n2)-c2coc(n2)-c2coc(n2)[C@H](C(C)C)NC(=O)c2coc(n2)-c2coc(n2)-c2coc1n2 [HXDV, reference compound]
IC50 (RPMI 8402 cells [3]; [9]): 540 ± 120 nM
IC50 (KB3-1 cells [4]): 350 ± 80 nM
ΔTtran, salmon testes duplex DNA [6]: 0 ^b °C
IC50 (several tumor cell lines): 500 nM

SMILES: CN(C)CCc1oc2nc1C(=O)NCc1cccc(c1)CNC(=O)c1nc(oc1CCN(C)C)-c1coc(n1)-c1cccc(n1)-c1nc-2co1 [Compound 37, Pyridyl tetraoxazole macrocycle with two 2-(N,N-dimethylamino)ethyl side chains]
ΔTtran, hTel quadruplex DNA [1]: 1.6 °C
Ttran, hTel quadruplex DNA [1]: 66.2 °C
ΔTtran, salmon testes duplex DNA [2]: −0.4 °C
Ttran, salmon testes duplex DNA [2]: 86.2 °C
IC50 (RPMI 8402 cells [3]; [9]): 1500 nM
IC50 (KB3-1 cells [4]): 400 ± 100 nM

SMILES: NCCc1cc2cc(c1)CNC(=O)c1coc(n1)-c1coc(n1)-c1cccc(n1)-c1nc(co1)-c1nc(co1)C(=O)NC2 [Compound 1]
IC50 (RPMI 8402 cells [7]): 90 to 180 nM
IC50 (KB3-1 cells [8]): 30 to 40 nM
